In paper PMC7803792 (Slas Discovery, 2021):
Entries after “also recorded” stand apart in the source; their conditions may differ.

Columns and labels:
[1] = molecular target: T1, SARS-CoV-2 nsp10-nsp16 complex (Severe acute respiratory syndrome coronavirus 2, UniProt P0DTD1); experiment: FP-based RNA displacement assay; assay type: binding; details: concentration for 50% displacement of 30 nM FAM-RNA from 0.5 µM nsp10-nsp16 complex
[2] = molecular target: T1, SARS-CoV-2 nsp10-nsp16 complex; details: FP, 30 nM FAM-RNA, maximum FP signal
[3] = molecular target: T1, SARS-CoV-2 nsp10-nsp16 complex; experiment: Isothermal titration calorimetry; assay type: binding
[4] = molecular target: SARS-CoV nsp10-nsp16 complex; details: cited from earlier work

Nc1nc2c(ncn2[C@@H]2O[C@H](COP(=O)(O)OP(=O)(O)OP(=O)(O)OC[C@H]3O[C@@H](n4cnc5c(=O)[nH]c(N)nc54)[C@H](O)[C@@H]3O)[C@@H](O)[C@H]2O)c(=O)[nH]1 [GpppG, G(5′)ppp(5′)G]
Kdisp (K displacement) [1]: unable to displace; also recorded: did not disrupt; also recorded: no RNA displacement

5′ N7-meGpppACCCCC-FAM 3′
Bmax [2]: 270 ± 5 mP

C[S+](CC[C@H](N)C(=O)[O-])C[C@H]1O[C@@H](n2cnc3c(N)ncnc32)[C@H](O)[C@@H]1O (stereo partly drawn) [SAM, S-adenosyl-L-methionine]
Kd [3]: 3.4 ± 1.5 µM
Kd [4]: 5.59 ± 1.15 µM

Cn1c[n+]([C@@H]2O[C@H](COP(=O)(O)OP(=O)(O)OP(=O)(O)OC[C@H]3O[C@@H](n4cnc5c(=O)[nH]c(N)nc54)[C@H](O)[C@@H]3O)[C@@H](O)[C@H]2O)c2nc(N)[nH]c(=O)c21 [N7-meGpppG, m7G(5′)ppp(5′G]
Kdisp (K displacement) [1]: 17 ± 3 µM

Cn1c[n+]([C@@H]2O[C@H](COP(=O)(O)OP(=O)(O)OP(=O)(O)OC[C@H]3O[C@@H](n4cnc5c(N)ncnc54)[C@H](O)[C@@H]3O)[C@@H](O)[C@H]2O)c2nc(N)[nH]c(=O)c21 [N7-meGpppA, m7G(5′)ppp(5′)A]
Kdisp (K displacement) [1]: 20 ± 6 µM

Nc1nc2c(ncn2[C@@H]2O[C@H](COP(=O)(O)OP(=O)(O)OP(=O)(O)OC[C@H]3O[C@@H](n4cnc5c(N)ncnc54)[C@H](O)[C@@H]3O)[C@@H](O)[C@H]2O)c(=O)[nH]1 [GpppA, G(5′)ppp(5′)A]
Kdisp (K displacement) [1]: unable to displace; also recorded: did not disrupt; also recorded: no RNA displacement
